Reference: BindingDB's records for doi:10.1016/j.bmcl.2005.08.072 (Merck Research Laboratories, 2005)
pIC50: −log10 of the molar value.

Target: T1, Dimer of Gag-Pol polyprotein [489-587,Q496K] (Human immunodeficiency virus 1, UniProt P12497, Q496K)
T1 construct: 489-587
Experiment: Protease Inhibition Assay
Conditions: pH 5.5; 30 °C
Experimental: Assay of HIV protease inhibition was performed by peptide cleavage using the substrate Val-Ser-Gln-Asn-beta-naphthylalanine*Pro-Ile-Val. Products of the cleavage reaction were quantified by HPLC detection, and data were fit to nonlinear least squares equations for determination of steady-state Michaelis-Menten kinetics.

| Structure (SMILES) | pIC50 |
| --- | --- |
| CC(C)(c1ncc(-c2ccc(Cl)cc2)o1)N1CCN(C[C@@H](O)C[C@@H](Cc2cc3c(Cl)cncc3s2)C(=O)N[C@H]2c3ccccc3OC[C@H]2O)[C@H](C(=O)NCC(F)(F)F)C1 [(2S)-4-{2-[5-(4-chlorophenyl)-1,3-oxazol-2-yl]propan-2-yl}-1-[(2S,4S)-4-({4-chlorothieno[2,3-c]pyridin-2-yl}methyl)-2-hydroxy-4-{[(3S,4S)-3-hydroxy-3,4-dihydro-2H-1-benzopyran-4-yl]carbamoyl}butyl]-N-(2,2,2-trifluoroethyl)piperazine-2-carboxamide] | > 10.70 |
| CC(C)(c1ncc(-c2ccc(Cl)cc2)o1)N1CCN(C[C@@H](O)C[C@@H](Cc2cc3ccncc3s2)C(=O)N[C@H]2c3ccccc3OC[C@H]2O)[C@H](C(=O)NCC(F)(F)F)C1 [(2S)-4-{2-[5-(4-chlorophenyl)-1,3-oxazol-2-yl]propan-2-yl}-1-[(2S,4S)-2-hydroxy-4-{[(3S,4S)-3-hydroxy-3,4-dihydro-2H-1-benzopyran-4-yl]carbamoyl}-4-{thieno[2,3-c]pyridin-2-ylmethyl}butyl]-N-(2,2,2-trifluoroethyl)piperazine-2-carboxamide] | > 10.70 |
